Read-outs that look alike come from different tables or passages of the source. Square brackets hold non-standard residues; d marks the D form. Peptide text beside a SMILES is read from it. * marks the point of attachment. ξ: configuration not given here. Piperidin1yl(4-NH2,4-CO2Me) = COC(=O)C1(N)CCN(*)CC1; Pyrrolidinyl(3-NH2,3-CO2Me) = COC(=O)C1(N)CCN(*)C1; Tic = O=C(O)[C@@H]1Cc2ccccc2CN1; dTic = O=C(O)[C@H]1Cc2ccccc2CN1; Aic = NC1(C(=O)O)Cc2ccccc2C1; ξL = CC(C)CC(N)C(=O)O
Tests used:
[1] = target: recombinant human kappa (KOR) opioid receptor (Homo sapiens (Human), UniProt P41145); assay: biochemical; type: binding; conditions: HEK293 cell membranes, 0.5 nM [3H]diprenorphine
[2] = target: recombinant human mu (MOR) opioid receptor (Homo sapiens (Human), UniProt P35372); assay: Opioid receptor radioligand binding assay, MOR
[3] = target: recombinant human delta (DOR) opioid receptor (Homo sapiens (Human), UniProt P41143); assay: Opioid receptor radioligand binding assay, DOR
[4] = HEK293 cell membranes, 0.5 nM [3H]DAMGO, read-out: MOR, IC50
[5] = HEK293 cell membranes, 0.5 nM [3H]DADLE, read-out: DOR, IC50

Chain of recombinant human delta (DOR) opioid receptor (P41143 whole entry, looked up): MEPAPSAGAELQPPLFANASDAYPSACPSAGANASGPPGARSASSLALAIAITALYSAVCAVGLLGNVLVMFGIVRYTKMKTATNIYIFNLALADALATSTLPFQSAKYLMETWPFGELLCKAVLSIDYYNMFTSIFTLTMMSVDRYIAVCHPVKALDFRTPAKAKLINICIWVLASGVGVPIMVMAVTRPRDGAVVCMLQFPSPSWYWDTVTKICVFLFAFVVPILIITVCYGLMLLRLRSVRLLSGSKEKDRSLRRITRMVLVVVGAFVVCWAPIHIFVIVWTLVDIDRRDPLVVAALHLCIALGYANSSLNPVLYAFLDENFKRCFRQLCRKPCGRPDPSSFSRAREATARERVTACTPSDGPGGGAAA

SMILES | IC50 [1] [µM] | IC50 [2, 4] [µM] | IC50 [3, 5] [µM] | IC50 [2] [µM] | IC50 [3] [µM]
CCCN(C(=O)OC)C1CCN(C(=O)[C@@H](CCCCN)NC(=O)[C@@H](CC(C)C)NC(=O)[C@@H](Cc2ccccc2)NC(=O)[C@H](N)Cc2ccccc2)CC1 [Compound 13-49] | 0.00046 | > 10 | > 10 |  | 
COC(=O)C1(N)CCN(C(=O)[C@@H](CCCNC(=N)N)NC(=O)[C@H]2CCCN2C(=O)[C@@H](Cc2ccccc2)NC(=O)[C@H](N)Cc2ccccc2)CC1 [Compound 22] (H-[dF][dF][dP][dR]-{Piperidin1yl(4-NH2,4-CO2Me)}) | 0.2 | 5.07 | > 10 |  | 
COC(=O)C1(N)CCN(C(=O)[C@@H](CCCNC(=N)N)NC(=O)[C@H]2CCCN2C(=O)[C@@H](Cc2ccccc2)NC(=O)[C@H](N)Cc2ccccc2)C1 (stereo partly shown) [Compound 28] (H-[dF][dF][dP][dR]-{Pyrrolidinyl(3-NH2,3-CO2Me)}) | > 0.2 | > 10 | > 10 |  | 
COC(=O)C1(N)CCN(C(=O)[C@@H](CCCCN)NC(=O)[C@H]2CCCN2C(=O)[C@@H](Cc2ccccc2)NC(=O)[C@H](N)Cc2ccccc2)CC1 [Compound 89] (H-[dF][dF][dP][dK]-{Piperidin1yl(4-NH2,4-CO2Me)}) | > 0.2 | > 10 | > 10 |  | 
CC(C)C[C@@H](NC(=O)[C@@H](Cc1ccccc1)NC(=O)[C@H](N)Cc1ccccc1)C(=O)N[C@H](CCCCN)C(=O)NCc1ccncc1O [Compound 13-11] | 0.00091 | > 10 | > 10 |  | 
CC(C)C[C@@H](NC(=O)[C@@H](Cc1ccccc1)NC(=O)[C@H](N)Cc1ccccc1)C(=O)N[C@H](CCCCN)C(=O)N1CCN(C(=O)/C=C/C(=O)O)CC1 [Compound 13-25] | 0.00556 | > 10 | > 10 |  | 
CCCC[C@@H](NC(=O)[C@@H](Cc1ccccc1)NC(=O)[C@H](N)Cc1ccccc1)C(=O)N[C@H](Cc1cnc(N)nc1)C(=O)N1CCC(N)(C(=O)OC)C1 (stereo partly shown) [Compound 82] | 0.0425 | 5.17 | > 10 |  | 
COCCN(CCOC)C(=O)[C@@H](CCCCN)NC(=O)[C@@H](CC(C)C)NC(=O)[C@@H](Cc1ccccc1)NC(=O)[C@H](N)Cc1ccccc1 [Compound 13-3] | 0.0281 | > 10 | > 10 |  | 
CC(C)C[C@@H](NC(=O)[C@@H](Cc1ccccc1)NC(=O)[C@H](N)Cc1ccccc1)C(=O)N[C@H](CCCCN)C(=O)NC1CCN(C(=O)C(=O)NC2CC2)CC1 [Compound 13-37] | 0.011 | 9.29 | > 10 |  | 
COC(=O)C1(N)CCN(C(=O)[C@@H](CCCCN)NC(=O)[C@@H](CC(C)C)NC(=O)[C@@H](Cc2ccccc2)NC(=O)[C@H]2Cc3ccccc3CN2)C1 (stereo partly drawn) [Compound 168] (H-[dTic][dF][dL][dK]-{Pyrrolidinyl(3-NH2,3-CO2Me)}) | 0.00423 |  |  | 2.41 | > 10
CC(C)C[C@@H](NC(=O)[C@@H](Cc1ccccc1)NC(=O)[C@H](N)Cc1ccccc1)C(=O)N[C@H](CCCCN)C(=O)N1CCC(NC(=O)C(N)=O)CC1 [Compound 13-57] |  |  | > 10 |  | 
COC(=O)C1(N)CCN(C(=O)[C@@H](CCCCN)NC(=O)C(CC(C)C)NC(=O)[C@@H](Cc2ccccc2)NC(=O)C2(N)Cc3ccccc3C2)CC1 (stereo partly shown) [Compound 158] (H-[Aic][dF][ξL][dK]-{Piperidin1yl(4-NH2,4-CO2Me)}) | 0.0009 | 5.37 | > 10 |  | 
CC(C)C[C@@H](NC(=O)[C@@H](Cc1ccccc1)NC(=O)[C@H](N)Cc1ccccc1)C(=O)N[C@H](CCCCN)C(=O)N1CCC(NC(=O)C(N)=O)CC1 [Compound 13-33] | 0.00054 | > 10 | > 10 |  | 
COC(=O)C1(N)CCN(C(=O)[C@@H](CCCCN)NC(=O)[C@@H](CC(C)C)NC(=O)[C@@H]2Cc3ccccc3CN2C(=O)[C@H](N)Cc2ccccc2)C1 (stereo partly drawn) [Compound 146] (H-[dF][Tic][dL][dK]-{Pyrrolidinyl(3-NH2,3-CO2Me)}) | 0.164 | > 10 | > 10 |  | 

Source: patent US12215173B2, “Kappa opioid receptor peptide amide ligands” (priority 2019, dated 2025)
